Results published in patent publication US10800777B2, “Polymorphic forms of VENCLEXTA” (Mylan Laboratories Limited, priority 2016, dated 2020).
Entries after “also recorded” stand apart in the source; their conditions may differ.

Experiment: Storage stability of venetoclax polymorphs, analyzed by PXRD for polymorph integrity
Assay type: physicochemical
Method: The present invention provides new polymorphs of venetoclax which may be characterized by powder X-ray diffraction (PXRD). Thus, samples of each disclosed polymorph were analyzed by PXRD on a BRUKER D-8 Discover powder diffractometer equipped with a goniometer of θ/2θ configuration and Lynx Eye detector. The Cu-anode X-ray tube was operated at 40 kV and 30 mA. The experiments were conducted over the […] of 2.0°-50.0°, 0.030° step size, and 0.4 seconds step time.
Thus, the stability of samples of amorphous venetoclax, as well as crystalline forms M9, M10, and M21 were stored at 40° C./75% relative humidity (RH) and at 25° C./60% relative humidity (RH) for 3 months. The samples were analyzed by PXRD for polymorph integrity.

**Q.** With `CC1(C)CCC(CN2CCN(c3ccc(C(=O)NS(=O)(=O)c4ccc(NCC5CCOCC5)c([N+](=O)[O-])c4)c(Oc4cnc5[nH]ccc5c4)c3)CC2)=C(c2ccc(Cl)cc2)C1` [Amorphous, 4-[4-[[2-(4-chlorophenyl)-4,4-dimethylcyclohexen-1-yl]methyl]piperazin-1-yl]-N-[3-nitro-4-(oxan-4-ylmethylamino)phenyl]sulfonyl-2-(1H-pyrrolo[2,3-b]pyridin-5-yloxy)benzamide] as the compound, how does the “PXRD (polymorph integrity)” value (at 25° C./60% RH, 1 months) read?
**A.** Stable

**Q.** What about the “PXRD (polymorph integrity)” value (at 25° C./60% RH, 2 months) of the same compound?
**A.** Stable

**Q.** And the “PXRD (polymorph integrity)” value (at 25° C./60% RH, 3 months)?
**A.** Stable

**Q.** What about the “PXRD (polymorph integrity)” value (at 25° C./60% RH, 3 months, listed as amorphous venetoclax) of the same compound?
**A.** no change in PXRD pattern

**Q.** And the “PXRD (polymorph integrity)” value (at 25° C./60% RH, 15 days)?
**A.** Stable

**Q.** What about the “PXRD (polymorph integrity)” value (at 25° C./60% RH, Initial) of the same compound?
**A.** Amorphous

**Q.** What about the “PXRD (polymorph integrity)” value (at 40° C./75% RH, 1 months) of the same compound?
**A.** Stable

**Q.** What about the “PXRD (polymorph integrity)” value (at 40° C./75% RH, 2 months) of the same compound?
**A.** Stable

**Q.** What about the “PXRD (polymorph integrity)” value (at 40° C./75% RH, 3 months) of the same compound?
**A.** Stable

**Q.** What about the “PXRD (polymorph integrity)” value (at 40° C./75% RH, 3 months, listed as amorphous venetoclax) of the same compound?
**A.** no change in PXRD pattern

**Q.** What about the “PXRD (polymorph integrity)” value (at 40° C./75% RH, 15 days) of the same compound?
**A.** Stable

**Q.** And the “PXRD (polymorph integrity)” value (at 40° C./75% RH, Initial)?
**A.** Amorphous

**Q.** For `CC1(C)CCC(CN2CCN(c3ccc(C(=O)NS(=O)(=O)c4ccc(NCC5CCOCC5)c([N+](=O)[O-])c4)c(Oc4cnc5[nH]ccc5c4)c3)CC2)=C(c2ccc(Cl)cc2)C1` [form M9, 4-[4-[[2-(4-chlorophenyl)-4,4-dimethylcyclohexen-1-yl]methyl]piperazin-1-yl]-N-[3-nitro-4-(oxan-4-ylmethylamino)phenyl]sulfonyl-2-(1H-pyrrolo[2,3-b]pyridin-5-yloxy)benzamide], which “PXRD (polymorph integrity)” value (at 25° C./60% RH, 3 months, listed as M9) is on record?
**A.** no change in PXRD pattern; also recorded: Stable

**Q.** And the “PXRD (polymorph integrity)” value (at 25° C./60% RH, Initial, listed as M9)?
**A.** Crystalline

**Q.** What about the “PXRD (polymorph integrity)” value (at 40° C./75% RH, 3 months, listed as M9) of the same compound?
**A.** no change in PXRD pattern; also recorded: Stable

**Q.** What about the “PXRD (polymorph integrity)” value (at 40° C./75% RH, Initial, listed as M9) of the same compound?
**A.** Crystalline

**Q.** With `CC1(C)CCC(CN2CCN(c3ccc(C(=O)NS(=O)(=O)c4ccc(NCC5CCOCC5)c([N+](=O)[O-])c4)c(Oc4cnc5[nH]ccc5c4)c3)CC2)=C(c2ccc(Cl)cc2)C1` [form M10, 4-[4-[[2-(4-chlorophenyl)-4,4-dimethylcyclohexen-1-yl]methyl]piperazin-1-yl]-N-[3-nitro-4-(oxan-4-ylmethylamino)phenyl]sulfonyl-2-(1H-pyrrolo[2,3-b]pyridin-5-yloxy)benzamide] as the compound, how does the “PXRD (polymorph integrity)” value (at 25° C./60% RH, 3 months, listed as M10) read?
**A.** no change in PXRD pattern; also recorded: Stable

**Q.** And the “PXRD (polymorph integrity)” value (at 25° C./60% RH, Initial, listed as M10)?
**A.** Crystalline

**Q.** And the “PXRD (polymorph integrity)” value (at 40° C./75% RH, 3 months, listed as M10)?
**A.** no change in PXRD pattern; also recorded: Stable

**Q.** And the “PXRD (polymorph integrity)” value (at 40° C./75% RH, Initial, listed as M10)?
**A.** Crystalline

**Q.** With `CC1(C)CCC(CN2CCN(c3ccc(C(=O)NS(=O)(=O)c4ccc(NCC5CCOCC5)c([N+](=O)[O-])c4)c(Oc4cnc5[nH]ccc5c4)c3)CC2)=C(c2ccc(Cl)cc2)C1` [form M21, 4-[4-[[2-(4-chlorophenyl)-4,4-dimethylcyclohexen-1-yl]methyl]piperazin-1-yl]-N-[3-nitro-4-(oxan-4-ylmethylamino)phenyl]sulfonyl-2-(1H-pyrrolo[2,3-b]pyridin-5-yloxy)benzamide] as the compound, how does the “PXRD (polymorph integrity)” value (at 25° C./60% RH, 3 months, listed as M21) read?
**A.** no change in PXRD pattern; also recorded: Stable

**Q.** And the “PXRD (polymorph integrity)” value (at 25° C./60% RH, Initial, listed as M21)?
**A.** Crystalline

**Q.** What about the “PXRD (polymorph integrity)” value (at 40° C./75% RH, 3 months, listed as M21) of the same compound?
**A.** no change in PXRD pattern; also recorded: Stable

**Q.** What about the “PXRD (polymorph integrity)” value (at 40° C./75% RH, Initial, listed as M21) of the same compound?
**A.** Crystalline
